Measurements reported in patent US9315498B2, “Arlethynyl derivatives” (Hoffmann-La Roche Inc., priority 2010, dated 2016).

Molecular target: human mGlu5a receptor (Homo sapiens (Human), UniProt P41594)
Assay: Intracellular Ca2+ mobilization assay (mGlu5 PAM)
Type: cell-based
Settings: for EC50: HEK-293 cells stably transfected with human mGlu5a, L-glutamate added at EC20 after pre-incubation with test compound, read-out: EC50 (nM) mGlu5PAM; for Emax: maximal response in % of the maximal stimulatory effect obtained with saturating concentrations of L-glutamate, read-out: Eff. (%)
Protocol: A monoclonal HEK-293 cell line stably transfected with a cDNA encoding for the human mGlu5a receptor was generated; for the work with mGlu5 Positive Allosteric Modulators (PAMs), a cell line with low receptor expression levels and low constitutive receptor activity was selected to allow the differentiation of agonistic versus PAM activity. Cells were cultured according to standard protocols (Freshney, 2000) in Dulbecco's Modified Eagle Medium with high glucose supplemented with 1 mM glutamine, 10% (vol/vol) heat-inactivated bovine calf serum, Penicillin/Streptomycin, 50 μg/ml hygromycin and 15 μg/ml blasticidin (all cell culture reagents and antibiotics from Invitrogen, Basel, Switzerland).
About 24 hrs before an experiment, 5×10^4 cells/well were seeded in poly-D-lysine coated, black/clear-bottomed 96-well plates. The cells were loaded with 2.5 μM Fluo-4AM in loading buffer (1×HBSS, 20 mM HEPES) for 1 hr at 37° C. and washed five times with loading buffer. The cells were transferred into a Functional Drug Screening System 7000 (Hamamatsu, Paris, France), and 11 half logarithmic serial dilutions of test compound at 37° C. were added and the cells were incubated for 10-30 min. with on-line recording of fluorescence. Following this pre-incubation step, the agonist L-glutamate was added to the cells at a concentration corresponding to EC20 (typically around 80 μM) with on-line recording of fluorescence; in order to account for day-to-day variations in the responsiveness of cells, the EC20 of glutamate was determined immediately ahead of each experiment by recording of a full dose-response curve of glutamate.
Responses were measured as peak increase in fluorescence minus basal (i.e. fluorescence without addition of L-glutamate), normalized to the maximal stimulatory effect obtained with saturating concentrations of L-glutamate. Graphs were plotted with the % maximal stimulatory using XLfit, a curve fitting program that iteratively plots the data using Levenburg Marquardt algorithm. The single site competition analysis equation used was y=A+((B−A)/(1+((x/C)D))), where y is the % maximal stimulatory effect, A is the minimum y, B is the maximum y, C is the EC50, x is the log10 of the concentration of the competing compound and D is the slope of the curve (the Hill Coefficient). From these curves the EC50 (concentration at which half maximal stimulation was achieved), the Hill coefficient as well as the maximal response in % of the maximal stimulatory effect obtained with saturating concentrations of L-glutamate were calculated.
A depression of the signal observed after addition of the EC20 concentration of L-glutamate was indicative of an inhibitory activity of the test compound.

Chain of human mGlu5a receptor (P41594 other isoform, or with tags, fused parts or gaps): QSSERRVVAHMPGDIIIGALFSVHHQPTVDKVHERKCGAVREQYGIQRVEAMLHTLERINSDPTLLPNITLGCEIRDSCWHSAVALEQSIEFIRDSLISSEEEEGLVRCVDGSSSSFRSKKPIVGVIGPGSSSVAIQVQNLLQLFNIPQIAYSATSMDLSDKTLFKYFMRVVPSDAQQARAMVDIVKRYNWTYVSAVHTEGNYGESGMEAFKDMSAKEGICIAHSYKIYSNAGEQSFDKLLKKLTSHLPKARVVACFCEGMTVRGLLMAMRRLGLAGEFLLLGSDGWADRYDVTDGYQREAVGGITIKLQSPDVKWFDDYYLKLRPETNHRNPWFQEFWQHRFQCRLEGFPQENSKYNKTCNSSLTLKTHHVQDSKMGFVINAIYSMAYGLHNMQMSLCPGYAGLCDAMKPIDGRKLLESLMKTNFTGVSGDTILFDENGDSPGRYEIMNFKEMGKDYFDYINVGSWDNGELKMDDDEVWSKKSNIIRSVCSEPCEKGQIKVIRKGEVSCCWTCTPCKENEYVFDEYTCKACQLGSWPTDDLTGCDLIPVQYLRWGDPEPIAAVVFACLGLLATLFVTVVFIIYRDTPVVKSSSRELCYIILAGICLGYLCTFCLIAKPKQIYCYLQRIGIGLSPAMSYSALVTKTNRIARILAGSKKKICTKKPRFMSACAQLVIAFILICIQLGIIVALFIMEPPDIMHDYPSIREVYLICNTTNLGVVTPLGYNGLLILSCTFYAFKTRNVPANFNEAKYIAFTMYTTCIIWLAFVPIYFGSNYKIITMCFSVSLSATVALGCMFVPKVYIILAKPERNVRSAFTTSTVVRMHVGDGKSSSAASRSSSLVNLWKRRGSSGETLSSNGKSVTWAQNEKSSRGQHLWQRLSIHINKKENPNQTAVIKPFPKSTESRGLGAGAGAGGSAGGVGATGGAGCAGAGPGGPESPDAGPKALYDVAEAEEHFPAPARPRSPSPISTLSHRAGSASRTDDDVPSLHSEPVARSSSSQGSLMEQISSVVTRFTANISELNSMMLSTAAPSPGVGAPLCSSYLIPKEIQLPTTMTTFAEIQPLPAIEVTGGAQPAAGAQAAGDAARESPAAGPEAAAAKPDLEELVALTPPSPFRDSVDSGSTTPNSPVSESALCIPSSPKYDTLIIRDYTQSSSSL

SMILES	EC50 [nM]	Emax [%]
COC1C(=O)N(c2ncc(C#Cc3cccc(F)c3)cn2)CC1(C)C (racemic) [Example 130, (RS)-1-[5-(3-Fluoro-phenylethynyl)-pyrimidin-2-yl]-3-methoxy-4,4-dimethyl-pyrrolidin-2-one]	41	74
CC1CN(c2ncc(C#Cc3ccccc3)cn2)C(=O)OC1(C)C (racemic) [Example 145, (RS)-5,6,6-Trimethyl-3-(5-phenylethynyl-pyrimidin-2-yl)-[1,3]oxazinan-2-one]	38	93
CC1CN(c2ncc(C#Cc3cc(F)ccc3F)cn2)C(=O)OC1(C)C (racemic) [Example 146, (RS)-3-[5-(2,5-Difluoro-phenylethynyl)-pyrimidin-2-yl]-5,6,6-trimethyl-[1,3]oxazinan-2-one]	69	64
CC1CN(c2ncc(C#Cc3cccc(F)c3)cn2)C(=O)OC1(C)C (racemic) [Example 148, (RS)-3-[5-(3-Fluoro-phenylethynyl)-pyrimidin-2-yl]-5,6,6-trimethyl-[1,3]oxazinan-2-one]	39	75
CC1CN(c2ncc(C#Cc3ccc(F)cc3)cn2)C(=O)OC1(C)C (racemic) [Example 149, (RS)-3-[5-(4-Fluoro-phenylethynyl)-pyrimidin-2-yl]-5,6,6-trimethyl-[1,3]oxazinan-2-one]	114	78
COC1CN(c2ccc(C#Cc3cccc(F)c3)cn2)C(=O)OC1(C)C (racemic) [Example 169, (RS)-3-[5-(3-Fluoro-phenylethynyl)-pyridin-2-yl]-5-methoxy-6,6-dimethyl-[1,3]oxazinan-2-one]	13	52
CN1C(=O)N(c2ccc(C#Cc3ccccc3)nn2)[C@@H]2CCC[C@@H]21 (racemic) [Example 170, (3aRS,6aSR)-1-Methyl-3-(6-phenylethynyl-pyridazin-3-yl)-hexahydro-cyclopentaimidazol-2-one]	13	105
CC1CN(c2ccc(C#Cc3ccccc3)cn2)C(=O)CO1 (racemic) [Example 171, (RS)-6-Methyl-4-(5-phenylethynyl-pyridin-2-yl)-morpholin-3-one]	88	73
CN1C(=O)N(c2ccc(C#Cc3cccc(F)c3)nn2)[C@@H]2CCC[C@@H]21 (racemic) [Example 174, (3aSR,6aRS)-1-[6-(3-Fluoro-phenylethynyl)-pyridazin-3-yl]-3-methyl-hexahydro-cyclopentaimidazol-2-one]	12	56
COC[C@H]1CN(c2ccc(C#Cc3ccccc3)cn2)C(=O)O1 (single isomer, unassigned) [Example 3, (5R or 5S)-5-Methoxymethyl-3-(5-phenylethynyl-pyridin-2-yl)-oxazolidin-2-one]	18	46
COC[C@@H]1CN(c2ccc(C#Cc3ccccc3)cn2)C(=O)O1 (single isomer, unassigned) [Example 4, (5S or 5R)-5-Methoxymethyl-3-(5-phenylethynyl-pyridin-2-yl)-oxazolidin-2-one]	278	98
CO[C@@H]1C(=O)N(c2ccc(C#Cc3ccccc3)cn2)CC1(C)C (single isomer, unassigned) [Example 61]	75	70
CO[C@H]1C(=O)N(c2ccc(C#Cc3ccccc3)cn2)CC1(C)C (single isomer, unassigned) [Example 62]	12	86
CO[C@@H]1C(=O)N(c2ncc(C#Cc3ccccc3)cn2)CC1(C)C (single isomer, unassigned) [Example 128]	46	54
CO[C@H]1C(=O)N(c2ncc(C#Cc3ccccc3)cn2)CC1(C)C (single isomer, unassigned) [Example 129]	18	90
